Test results reported in PubChem BioAssay (NCI).
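The compound was tested at five concentrations on cells cultured in 96-well plates, with a 48-hour exposure period. Abbreviation: GI50, concentration required for 50% inhibition of growth. TGI denotes the concentration required for complete inhibition of growth.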

What was measured:
Assay in all cases: NCI-60 cell line screen, 48 h
[1] = tested on: A498 renal
[2] = tested on: SR leukemia
[3] = tested on: LOX IMVI melanoma
[4] = tested on: NCI-H23 lung
[5] = tested on: OVCAR-4 ovarian
[6] = tested on: SF-268 CNS
[7] = tested on: MALME-3M melanoma
[8] = tested on: HS 578T breast
[9] = tested on: HT29 colon
[10] = tested on: EKVX NSCLC

Compound	GI50 [1]	TGI [1]	GI50 [2]	TGI [2]	GI50 [3]	TGI [3]	GI50 [4]	TGI [4]	GI50 [5]	TGI [5]	GI50 [6]	TGI [6]	GI50 [7]	TGI [7]	GI50 [8]	TGI [8]	GI50 [9]	TGI [9]	GI50 [10]	TGI [10]
Cc1cnc(C(=O)NNc2nc3sc4c(c3c(=O)n2C)C(C)CCC4)cn1 (stereo not drawn)	1890 nM	7.8 µM	237 nM	> 100 µM	304 nM	1.75 µM	719 nM	10.3 µM	163 nM	2.09 µM	280 nM	6.65 µM	544 nM	3.29 µM	1560 nM	17.1 µM	788 nM	6.19 µM	292 nM	9.13 µM
CC(C)CC(NC(=O)OC(C)(C)C)C(=O)Nc1ccc(Nc2nc(F)nc(-c3c4ccccc4cn3C)n2)cc1 (stereo not drawn)		> 100 µM		> 74.1 µM		> 100 µM		> 100 µM		> 100 µM		> 100 µM		> 100 µM		> 100 µM		54.9 µM		> 81.1 µM
COC(=O)CC[C@H](Cc1ccccc1)NC(=O)c1csc([C@@H](C[C@H](C(C)C)N(C)C(=O)[C@@H](NC(=O)[C@H]2CCCCN2C)C(C)C)OC(C)=O)n1	4.06 nM		< 2.5 nM	> 8.5 µM	< 2.5 nM	> 25 µM	5.15 nM	> 25 µM	23 nM	> 25 µM	7.85 nM	> 25 µM	7530 nM	> 25 µM	< 2.5 nM	> 25 µM	< 2.5 nM	> 25 µM	8.01 nM	> 25 µM
CCCCCCCc1cc2c3c(nc4ccccc42)C(=O)c2cccnc2-c3n1	6460 nM	17.5 µM	3020 nM	10.7 µM	2190 nM	7.29 µM	10800 nM	25.6 µM	5740 nM	13.8 µM	5480 nM	11.8 µM	5070 nM	10.9 µM	4860 nM	11.6 µM	5990 nM	27.7 µM	4500 nM	9.14 µM
COc1cc2c(cc1OC)C13CCN4CC5CCOC6CC(=O)N2C1C6C5CC43 (stereo not drawn)		> 100 µM		> 100 µM		> 100 µM		> 100 µM		> 100 µM		> 100 µM		> 100 µM		> 100 µM		> 100 µM		> 100 µM
COc1ccc(-c2ccc(-c3ccc(C(=N)N)o3)o2)cc1	1760 nM	7.48 µM	417 nM	2.79 µM	1460 nM	2.96 µM	4340 nM	18.3 µM	2220 nM	12.2 µM	2040 nM	7.22 µM	3970 nM	19.1 µM	4330 nM	18.4 µM	484 nM	2.82 µM	2790 nM	14.5 µM
O=C1C(=O)c2cccnc2-c2ncccc21	199 nM	2.21 µM	87.5 nM	1.08 µM	60 nM	0.36 µM	319 nM	1.3 µM	139 nM	0.268 µM	224 nM	1.01 µM	215 nM	0.769 µM	244 nM	1.08 µM	1040 nM	2.33 µM	322 nM	1.29 µM
CCN(CC)c1ccc(C(=O)c2ccc(N(CC)CC)cc2)cc1	335 nM	4.14 µM	127 nM	> 100 µM	620 nM	28.3 µM	740 nM	> 100 µM	2140 nM	> 100 µM	666 nM	> 35.9 µM	334 nM	17.4 µM	237 nM	1 µM	359 nM	3.78 µM	1190 nM	> 70.3 µM
O=C1c2ccccc2S(=O)(=O)c2cc(-c3nn[nH]n3)ccc21		> 100 µM		> 100 µM		> 100 µM		> 100 µM		> 100 µM		> 100 µM		> 100 µM		> 100 µM		> 100 µM		> 100 µM
O=c1c(O)c(-c2cc(O)c(O)c(O)c2)oc2cc(O)cc(O)c12		> 100 µM		> 100 µM		31 µM		35.4 µM		30.2 µM		> 100 µM		> 100 µM		> 100 µM		38.9 µM		
O=C1CCc2c(sc3[nH]c(=S)n(Cc4ccc(Cl)cc4)c(=O)c23)C1	1870 nM	7.25 µM	562 nM	> 45.2 µM	410 nM	5.4 µM	345 nM	2.68 µM	388 nM	28.2 µM	442 nM	> 100 µM	972 nM	3.9 µM	460 nM	> 100 µM	3270 nM	> 100 µM	544 nM	> 100 µM
Cc1ccc(O)c(NC(=O)c2ccc(CNc3ccnc(C(F)(F)F)c3)cc2)c1	14300 nM	37.6 µM	5100 nM	30 µM	5640 nM	31.4 µM	10600 nM	53.3 µM	26700 nM	> 100 µM	10800 nM	38 µM	2530 nM	22.1 µM	11200 nM	42.8 µM	23100 nM	> 100 µM	4040 nM	34.9 µM
Cc1cccc(NC(=O)c2cccc([N+](=O)[O-])c2O)c1C		> 100 µM		> 100 µM		> 72.8 µM		62.9 µM		> 100 µM		> 100 µM		> 84.2 µM		> 100 µM		> 100 µM		> 100 µM
OCC#Cc1ccccc1C#CCCCCCC#Cc1ccccc1C#CCO	24100 nM	44.8 µM	18100 nM	40.7 µM	19300 nM	34.8 µM	18400 nM	33.6 µM	41000 nM	> 100 µM	18800 nM	38.7 µM	20700 nM	52.6 µM	21700 nM	43.7 µM	21600 nM	> 100 µM	21300 nM	42.4 µM
CC(=O)OCc1cc2ccccc2nc1C(Br)(Br)Br		42.8 µM		13.7 µM		29.2 µM		29.8 µM		30.5 µM		39.9 µM		18.1 µM		> 100 µM		44.9 µM		41.8 µM
